From patent publication US20250320565A1, “DETECTING ANTIBIOTIC AND/OR CHEMICAL USE IN AQUATIC ANIMALS USING EPIGENETIC MEANS” (Evonik Operations GmbH, priority 2022, published 2025)

Tested on: marble crayfish
Test: DNA methylation analysis (Agilent Sure Select Methyl-Seq) of abdominal tissue genomic DNA after antibiotic administration in feed
Assay type: in vivo
Conditions: for number of DNA segments with significant differences between the control and the treated animals: Kruskal Wallis test, p<0.05, CpGs with at least 10 reads, average methylation <0.2 or >0.8 filtered out
Method: Marble crayfish collected from a population at Lake Reilinger, Germany were collected for the experiment and reared from juveniles in the laboratory. A total of 30 adult marbled crayfish were reared in one of 5 treatments with replicates as outlined in Table 1: • 1) Control—no antibiotic treatment • 2) TetraA—Acute tetracycline administration at 10 mg/kg of feed for 7 days • 3) TetraB—Prophylactic tetracycline administration at 5 mg/kg of feed for 42 days • 4) NorA—administered at 10 mg/kg of feed for 7 days • 5) NorB—administered at 5 mg/kg of feed for 28 days
All other rearing variables were kept consistent for all treatment groups. Crayfish were reared in plastic containers with 20° C. tap water, which was replaced every two weeks, exposed to natural day-night light rhythms and daily feeding.
A subset of abdominal tissue genomic DNA samples (Table 1) was utilized for analysis of the Agilent Sure Select Methyl-Seq Assay. Abdominal tissue was extracted from marble crayfish directly after treatment duration, DNA was then extracted as previously described (Tönges et al, 2021).
Library preparation was carried out as described in the Agilent's Sure Select Methyl-Seq Target Enrichment System for Illumina Multiplexed Sequencing Protocol (version E0, April 2018) to specifically analyze 361 genes. These genes were previously characterized as variably methylated genes in the marble crayfish genome, showing differential site-specific methylation patterns in marble crayfish from different wild populations (Gatzmann et al., 2018; Tönges et al., 2021b).
Quality controls were performed, and sample concentrations were measured on a 2,200 TapeStation (Agilent). Multiplexed samples were submitted to the DKFZ High Throughput Sequencing core facility and sequenced on a HiSeq system (Illumina). For data analysis, the 361 sequenced genes were mapped to the bisulfite sequencing datasets of the entire […] genome (Gatzmann et al., 2018; Xi and Li 2009).
To identify antibiotic-specific methylation ratios in genomic DNA from abdominal tissue, the average methylation of each sample within 1 kb of DNA segments was calculated.
The data sets of the 1754 DNA segments were further analyzed and only the CpG positions covered in all samples with at least 10 reads were used. In addition, the CpGs that were either completely methylated or unmethylated (average methylation <0.2 or >0.8) were filtered out.
The DNA segments of the PCA were further analyzed and only the CpG positions that have at least 10 reads in all samples were reused. Furthermore, the CpGs that are completely unmethylated or methylated (average methylation <0.2 or >0.8) were filtered out.

[1] = NorB: 5 mg/kg of feed for 28 days, compared with control and NorA
[2] = control vs the two treatment groups, average methylation

Row | Compound | number of DNA segments with significant differences between the control and the treated animals | average methylation rates of eight CpGs of gene Scaffold_52370: 13110767-13110901 (NorA: 10 mg/kg of feed for 7 days, compared with control) | methylation rates of eight CpGs of gene Scaffold_36323: 7555-7623 [1] | methylation ratios of eight CpGs of gene Scaffold_52370: 13110767-13110901 [1] | PCA separation between treated and untreated samples and between the two treatment groups (PCA of differentially methylated DNA segments) | effect size Cohen's d of all other DNA segments (very small effect) [2] | number of DNA segments showing a small effect (Cohen's d>0.2) [2] | analysis of DMRs, treatment groups vs control (p>0.05)
1 | CCn1cc(C(=O)O)c(=O)c2cc(F)c(N3CCNCC3)cc21 [norfloxacin] | 71 | no significant difference | higher methylation rates in all CpGs | higher methylation ratios of all CpGs | robust separation | < 0.02 | 4 | no significant differences
2 | CN(C)[C@@H]1C(O)=C(C(N)=O)C(=O)[C@@]2(O)C(O)=C3C(=O)c4c(O)cccc4[C@@](C)(O)[C@H]3C[C@@H]12 [tetracycline] | 432 |  |  |  |  |  |  | 
